Experimental data published in ChEMBL document CHEMBL5357053, “Neopetrotaurines A-C, Isoquinoline Alkaloids with an Unprecedented Taurine Bridge from the Sponge Neopetrosia sp” (J Nat Prod, 2024).
The source made the active and inactive calls. The rule behind the calls is not given here.

Columns and labels:
Assay type in all cases: functional, cell-based
[1] = Antiproliferative activity against human Rh4 cells assessed as inhibition of cell viability measured after 72 hrs by IncuCyte live-cell imaging assay; conditions: Rh4, 72 h
Rh4 = experiment: Downregulation of FOXO1 target gene set in human Rh4 cells measured after 6 hrs by GSEA method; conditions: dose 1.9 µM
SCMC = experiment: Downregulation of FOXO1 target gene set in human SCMC cells measured after 6 hrs by GSEA method
[2] = Antiproliferative activity against human SCMC cells assessed as inhibition of cell viability measured after 72 hrs by IncuCyte live-cell imaging assay

SMILES	IC50 [1] [µM]	Activity (Rh4)	Activity (SCMC)	IC50 [2] [µM]
COC(=O)c1cc2c(OS(=O)(=O)CCNc3c4c(cn(C)c3=O)C(=O)C(OC)=C(C)C4=O)c(C)c(OC)c(O)c2c[n+]1C	3.3	Active	Active	11
COC1=C(C)C(=O)c2c(cn(C)c(=O)c2NCCS(=O)(=O)Oc2c(C)c(OC)c(O)c3c[n+](C)ccc23)C1=O	1.9	inactive	inactive	7.3
COC1=C(C)C(=O)c2c(cn(C)c(=O)c2NCCS(=O)(=O)Oc2c(C)c(OC)c(O)c3c[n+](C)c(C(=O)O)cc23)C1=O	2.3	inactive	inactive	7.4
